The target of the assay is T1, human IDO1 (Homo sapiens, UniProt P14902).
T1 construct: expressed in transfected cells
Put plainly: HEK293 human IDO1 cell-based IDO inhibition assay. The conditions noted are these: read-out: HEK Human IDO-1 Potency. On the procedure: 1HEK293 cells were transfected with a pCDNA-based mammalian expression vector harboring human IDO1 cDNA (NM 002164.2) by electroporation. They were cultured in medium (DMEM with 10% FBS) containing 1 mg/ml G418 for two weeks. Clones of HEK293 cells that stably expressed human IDO1 protein were selected and expanded for IDO inhibition assay.
The human IDOL/HEK293 cells were seeded at 10,000 cells per 50 μL per well with RPMI/phenol red free media contains 10% FBS in a 384-well black wall clear bottom tissue culture plate (Matrix Technologies LLC) 100 nL of certain concentration of compound was then added to each well using ECHO liquid handling systems. The cells were incubated for 20 hours in 37° C. incubator with 5% CO2.
The compound treatments were stopped by adding Trichloroacetic Acid (Sigma-Aldrich) to a final concentration at 0.2%. The cell plate was further incubated at 50° C. for 30 minute. The equal volume supernatant (20 μL) and 0.2% (w/v) Ehrlich reagent (4-dimethylaminobenzaldehyde, Sigma-Aldrich) in glacial acetic acid were mixed in a new clear bottom 384-well plate. This plate was then incubated at room temperature for 30 minute. The absorbance at 490 nm was measured on Envision plate reader.

Read-outs that look alike come from different tables or passages of the source.

T1 sequence (P14902 whole entry): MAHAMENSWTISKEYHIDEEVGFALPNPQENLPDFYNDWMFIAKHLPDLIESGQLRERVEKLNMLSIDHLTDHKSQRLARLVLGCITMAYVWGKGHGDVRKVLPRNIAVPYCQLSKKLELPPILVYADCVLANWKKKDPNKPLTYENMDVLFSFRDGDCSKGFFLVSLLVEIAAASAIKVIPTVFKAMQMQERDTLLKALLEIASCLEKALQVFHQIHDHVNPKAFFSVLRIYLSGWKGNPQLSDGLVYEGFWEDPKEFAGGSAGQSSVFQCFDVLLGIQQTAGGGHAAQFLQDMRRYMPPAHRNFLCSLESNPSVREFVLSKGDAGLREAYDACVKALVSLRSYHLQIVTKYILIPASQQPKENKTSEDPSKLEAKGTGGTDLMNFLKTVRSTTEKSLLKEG

As to `C[C@@H](C(=O)Nc1ccc(C(F)(F)F)c(C#N)c1)[C@H]1CC[C@@H](c2ccnc3ccc(F)cc32)CC1` [Example 82, (R)—N-(3-Cyano-4-(trifluoromethyl)phenyl)-2-((cis)-4-(6-fluoroquinolin-4-yl)cyclohexyl)propanamide], the IC50 was less than 250 nM.
On the same count and under the same terms, under `C[C@@H](C(=O)Nc1ccc(Cl)cc1)[C@H]1CC[C@H](c2ccnc3ncccc32)CC1` (single isomer, unassigned) [Example 148d] stands less than 250 nM; under `CCC(C(=O)Nc1ccc(Cl)cc1)[C@H]1CC[C@H](Oc2ccnc3c(C(F)(F)F)cccc23)CC1` (stereo partly drawn) [Example 86, N-(4-Chlorophenyl)-2-((trans)-4-((8-(trifluoromethyl)quinolin-4-yl)oxy)cyclohexyl)butanamide], less than 50 nM; under `C[C@@H](C(=O)Nc1cccnc1)[C@H]1CC[C@@H](c2ccnc3ccc(F)cc32)CC1` [Example 76, (R)-2-((cis)-4-(6-fluoroquinolin-4-yl)cyclohexyl)-N-(pyridin-3-yl)propanamide], less than 50 nM.
The same measure, in the same setting: under `C[C@@H](C(=O)Nc1ccc(Cl)cc1)[C@H]1CC[C@@H](c2ccnc3c2ncn3C)CC1` (single isomer, unassigned) [Example 251d, N-(4-chlorophenyl)-2-(4-(3-methyl-3H-imidazo[4,5-b]pyridin-7-yl)cyclohexyl)propanamide] stands greater than 250 nM; under `C[C@@H](C(=O)Nc1cccc(C(F)(F)F)c1)[C@H]1CC[C@@H](c2ccnc3ccc(F)cc32)CC1` [Example 70, (R)-2-((cis)-4-(6-fluoroquinolin-4-yl)cyclohexyl)-N-(3-(trifluoromethyl)phenyl)propanamide], less than 50 nM; under `CCOc1ccc(NC(=O)C(C)N2CCC(Oc3ccnc4ccc(F)cc34)CC2)cc1` (stereo not drawn) [compound 100], less than 50 nM.
On to `CCCC(C(=O)NC1(C)CCCCC1)N1CCN(c2ccnc3ccc(F)cc23)CC1` (single isomer, unassigned) [Example 248, 2-(4-(6-Fluoroquinolin-4-yl)piperazin-1-yl)-N-(1-methylcyclohexyl)pentanamide], for which the IC50 was greater than 250 nM.
Regarding `COCC(C(=O)Nc1ccc(Cl)cc1)N1CCN(c2ccnc3ccc(F)cc23)CC1` (single isomer, unassigned) [Example 135, N-(4-chlorophenyl)-2-(4-(6-fluoroquinolin-4-yl)piperazin-1-yl)-3-methoxypropanamide], the IC50 was greater than 250 nM.
Same read-out and setting: under `C[C@@H](C(=O)Nc1ccc(Cl)cc1)[C@H]1CC[C@H](c2ccnc3cn[nH]c32)CC1` (single isomer, unassigned) [Example 150d] stands less than 50 nM.
For `CC(C(=O)Nc1ccc(Cl)cc1)N1CCC(Oc2ccc3nccc(Cl)c3c2)CC1` (single isomer, unassigned) [Example 94], the IC50 is less than 250 nM.
On the same count and under the same terms, the value for `CCC(C(=O)Nc1ccc(Cl)cc1)[C@H]1CC[C@@H](Oc2cc(C(F)(F)F)nc3ccccc23)CC1` (single isomer, unassigned) [Example 88a, N-(4-Chlorophenyl)-2-((cis)-4-((2-(trifluoromethyl)quinolin-4-yl)oxy)cyclohexyl)butanamide] was less than 50 nM; that for `CC(C(=O)Nc1ccc(Cl)cc1)N1CCN(c2ccnc3ccc(F)cc23)CC1` (single isomer, unassigned) [Example 130, N-(4-Chlorophenyl)-2-(4-(6-fluoroquinolin-4-yl)piperazin-1-yl)propanamide] was greater than 250 nM.
For the molecule `C[C@@H](C(=O)Nc1ccc(Cl)c(Cl)c1)[C@H]1CC[C@@H](c2ccnc3ccc(F)cc32)CC1` [Example 66, (R)-N-(3,4-dichlorophenyl)-2-((cis)-4-(6-fluoroquinolin-4-yl)cyclohexyl)propanamide], the IC50 was less than 50 nM.
Same read-out and setting: the value for `C[C@@H](C(=O)Nc1ccc2c(c1)OC(F)(F)O2)[C@H]1CC[C@@H](c2ccnc3ccc(F)cc32)CC1` [Example 61, (R)-N-(2,2-difluorobenzo[d][1,3]dioxol-5-yl)-2-((cis)-4-(6-fluoroquinolin-4-yl)cyclohexyl)propanamide] was less than 50 nM.
On to `C[C@H](C(=O)Nc1ccc(Cl)cc1)[C@H]1CC[C@@H](c2ccnc3ccc(I)cc32)CC1` (single isomer, unassigned) [Example 152a], for which the IC50 is less than 50 nM.
For the molecule `C[C@H](C(=O)Nc1ccc(Cl)cc1)[C@H]1CC[C@@H](c2ccnc3ncccc32)CC1` (single isomer, unassigned) [Example 148a], the IC50 is greater than 250 nM.
As for `CCC(C(=O)Nc1ccccc1)N1CCN(c2ccnc3ccc(F)cc23)CC1` (racemic) [Example 132, (±)-2-(4-(6-Fluoroquinolin-4-yl)piperazin-1-yl)-N-phenylbutanamide], the IC50 is greater than 250 nM.
On the same count and under the same terms, the value for `COCC(C(=O)Nc1ccc(Cl)cc1)N1CCN(c2ccnc3ccc(F)cc23)CC1` (racemic) [Example 133, (±)—N-(4-Chlorophenyl)-2-(4-(6-fluoroquinolin-4-yl)piperazin-1-yl)-3-methoxypropanamide] was greater than 250 nM; that for `CCCC(C(=O)NC1(C)CCCCC1)N1CCN(c2ccnc3ccc(F)cc23)CC1` (single isomer, unassigned) [Example 249, 2-(4-(6-Fluoroquinolin-4-yl)piperazin-1-yl)-N-(1-methylcyclohexyl)pentanamide] was less than 50 nM.
On to `O=C(CN1CCC(Oc2ccnc3ccc(F)cc23)CC1)Nc1ccc(Cl)cc1` [Example 95, N-(4-Chlorophenyl)-2-(4-((6-fluoroquinolin-4-yl)oxy)piperidin-1-yl)acetamide], for which the IC50 is less than 250 nM.
Turning to `CC(C(=O)O)c1ccc(C[C@@H](C(=O)Nc2ccc(Cl)cc2)[C@H]2CC[C@@H](c3ccnc4ccccc43)CC2)cc1` (single isomer, unassigned) [Example 87a], the IC50 was less than 50 nM.
Take `C[C@@H](C(=O)Nc1ccccc1)[C@H]1CC[C@@H](c2ccnc3ccc(F)cc32)CC1` [Example 58, (R)-2-((cis)-4-(6-fluoroquinolin-4-yl)cyclohexyl)-N-phenylpropanamide]: the IC50 is less than 50 nM.
Still for that read-out and setting: the value for `CCC(C(=O)Nc1ccc(Cl)cc1)[C@H]1CC[C@@H](Oc2cc(C(F)(F)F)nc3ccccc23)CC1` (mixture of isomers) [Example 88, (±)—N-(4-Chlorophenyl)-2-((cis)-4-((2-(trifluoromethyl)quinolin-4-yl)oxy)cyclohexyl)butanamide] was less than 50 nM; that for `O=C(CC1CCN(Cc2ccnc3ccccc23)CC1)Nc1ccc(Cl)cc1` [Example 113, N-(4-Chlorophenyl)-2-(1-(quinolin-4-ylmethyl)piperidin-4-yl)acetamide] was less than 50 nM.
In the case of “N-(4-chlorophenyl)-2-(cis-4-(6-fluoroquinolin-4-yl)-1-hydroxycyclohexyl) propanamide [Example 232]”, where the note is “HEK293 cells stably expressing human IDO1, 20 hours incubation, absorbance at 490 nm (Ehrlich reagent), 500 nM reference standard = 100% inhibition”, the IC50 was less than 50 nM.
Turning to `COc1ncc(NC(=O)CC2(C)CCN(c3ccnc4ccc(F)cc34)CC2)cn1` [Example 124], the IC50 was greater than 250 nM.
For the molecule `CCC(C(=O)Nc1ccc(Cl)cc1)[C@H]1CC[C@H](Oc2cc(C(F)(F)F)nc3ccccc23)CC1` (mixture of isomers) [Example 84, (±)—N-(4-Chlorophenyl)-2-((trans)-4-((2-(trifluoromethyl)quinolin-4-yl)oxy)cyclohexyl)butanamide], the IC50 is greater than 250 nM.
With `CCC(C(=O)Nc1ccc(Cl)cc1)N1CCC(Oc2ccnc3ccc(F)cc23)CC1` (stereo not drawn) [compound 111], the IC50 is less than 250 nM.
`C[C@@H](C(=O)Nc1ccccc1F)[C@H]1CC[C@@H](c2ccnc3ccc(F)cc32)CC1` [Example 77, (R)-N-(2-fluorophenyl)-2-((cis)-4-(6-fluoroquinolin-4-yl)cyclohexyl)propanamide]: the IC50 was less than 50 nM.
On the same count and under the same terms, under `Cc1ccc(NC(=O)C(C)N2CCC(Oc3ccnc4ccc(F)cc34)CC2)cc1` (stereo not drawn) [compound 101] stands less than 50 nM; under `O=C(CC1CCN(c2ccnc3ccc(F)cc23)CC1)Nc1ccc(F)cc1` [Example 115, N-(4-Fluorophenyl)-2-(1-(6-fluoroquinolin-4-yl)piperidin-4-yl)acetamide], greater than 250 nM; under `COCC(C(=O)Nc1ccc(F)cc1)N1CCN(c2ccnc3ccc(F)cc23)CC1` (racemic) [Example 134, (±)—N-(4-Fluorophenyl)-2-(4-(6-fluoroquinolin-4-yl)piperazin-1-yl)-3-methoxypropanamide], less than 250 nM.
In the case of `C[C@@H](C(=O)Nc1ccc(Cl)cc1)[C@H]1CC[C@@H](c2ccnc3cn[nH]c32)CC1` (single isomer, unassigned) [Example 150b], the IC50 was greater than 250 nM.
As for `CC(C(=O)O)c1ccc(C[C@@H](C(=O)Nc2ccc(Cl)cc2)[C@H]2CC[C@@H](c3ccnc4ccc(F)cc43)CC2)cc1` (single isomer, unassigned) [Example 138], the IC50 was less than 50 nM.
On the same count and under the same terms, the value for `CCC(C(=O)Nc1ccc(Cl)cc1)[C@H]1CC[C@@H](Oc2ccnc3ccc(C(F)(F)F)cc23)CC1` (single isomer, unassigned) [Example 89b, N-(4-Chlorophenyl)-2-((cis)-4-((6-(trifluoromethyl)quinolin-4-yl)oxy)cyclohexyl)butanamide] was greater than 250 nM.
